Source: patent publication US5606020A, “6 (R)-l-erythro-5,6,7,8-tetrahydrobiopterin receptor” (Suntory Limited, priority 1991, dated 1997)
Values belong to the compound of their own block, whether it stands above or below them.

Key:
[1] = supplementation therapy; cited from earlier work
[2] = biological target: known enzymes which participate in the biosynthesis of 6R-BH4 or enzymes for which 6R-BH4 acts as a coenzyme; conditions: enzymes of 6R-BH4 biosynthesis or using 6R-BH4 as coenzyme; cited from earlier work
[3] = test system: release of neurotransmitter amines such as dopamine (DA), norepinephrine and serotonin; experiment: Release and liberation of neurotransmitters
6R-BH4 receptor [4] = biological target: T1, 6R-BH4 receptor (Rattus norvegicus, UniProt P29476); experiment: Scatchard plot analysis of [6-^3 H]6R-BH4 binding to solubilized fraction of rat cerebellum
T1 construct: solubilized fraction of rat cerebellum; from tissue; host or cells: rat cerebellum, P2 membrane fraction solubilized with CHAPS (not purified)
T1 sequence (P29476 whole entry): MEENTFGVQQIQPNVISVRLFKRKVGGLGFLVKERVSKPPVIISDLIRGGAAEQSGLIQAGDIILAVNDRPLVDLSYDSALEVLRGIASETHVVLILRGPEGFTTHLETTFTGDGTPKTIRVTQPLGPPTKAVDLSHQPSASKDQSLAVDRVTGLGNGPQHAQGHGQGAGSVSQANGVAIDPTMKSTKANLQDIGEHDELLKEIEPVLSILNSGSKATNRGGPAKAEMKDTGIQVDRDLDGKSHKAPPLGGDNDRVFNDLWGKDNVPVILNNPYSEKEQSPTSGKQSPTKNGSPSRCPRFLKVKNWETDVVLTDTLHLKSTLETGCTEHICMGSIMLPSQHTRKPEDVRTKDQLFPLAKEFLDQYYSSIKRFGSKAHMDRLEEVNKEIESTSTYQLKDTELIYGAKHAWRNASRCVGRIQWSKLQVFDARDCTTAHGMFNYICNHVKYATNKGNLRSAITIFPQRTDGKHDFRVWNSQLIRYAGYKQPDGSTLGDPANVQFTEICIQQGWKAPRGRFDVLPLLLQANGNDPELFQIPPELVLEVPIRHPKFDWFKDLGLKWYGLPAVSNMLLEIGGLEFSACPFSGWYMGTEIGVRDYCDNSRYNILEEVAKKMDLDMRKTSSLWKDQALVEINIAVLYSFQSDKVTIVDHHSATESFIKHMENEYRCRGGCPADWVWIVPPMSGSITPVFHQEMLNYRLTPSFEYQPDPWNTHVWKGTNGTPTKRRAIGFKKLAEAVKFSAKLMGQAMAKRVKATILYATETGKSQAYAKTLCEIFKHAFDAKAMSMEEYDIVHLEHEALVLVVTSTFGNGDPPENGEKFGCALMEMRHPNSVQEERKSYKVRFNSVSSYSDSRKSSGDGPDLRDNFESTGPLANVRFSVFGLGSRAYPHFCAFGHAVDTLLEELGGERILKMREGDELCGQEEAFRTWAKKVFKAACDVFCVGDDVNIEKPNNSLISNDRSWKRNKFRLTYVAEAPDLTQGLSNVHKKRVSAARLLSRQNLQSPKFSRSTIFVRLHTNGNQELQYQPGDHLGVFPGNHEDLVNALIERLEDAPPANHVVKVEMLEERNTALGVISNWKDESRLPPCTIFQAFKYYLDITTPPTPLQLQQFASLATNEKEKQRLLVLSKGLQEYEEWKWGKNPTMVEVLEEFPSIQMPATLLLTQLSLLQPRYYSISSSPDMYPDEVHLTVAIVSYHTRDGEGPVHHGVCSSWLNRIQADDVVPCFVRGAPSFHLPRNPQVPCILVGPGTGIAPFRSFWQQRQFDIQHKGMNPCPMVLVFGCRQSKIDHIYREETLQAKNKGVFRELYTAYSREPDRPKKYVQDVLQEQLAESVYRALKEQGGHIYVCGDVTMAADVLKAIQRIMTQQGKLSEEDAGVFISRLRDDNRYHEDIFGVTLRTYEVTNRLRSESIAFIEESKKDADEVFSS
Description: The Scatchard plot analysis may be carried out, for example, as follows. In an appropriate buffer solution, for example, 50 mM Tris hydrochloride (pH 7.4), 100 mM NaCl, 10 mM MgCl2, 2 mM ascorbic acid and 6 mM cysteine solution, a fraction containing the receptor solubilized with CHAPS is incubated with [6-^3 H]6R-BH4 at various concentrations under appropriate conditions, for example, at 37° C. for 10 minutes. Then the radioactivity is measured by a conventional method and plotted. From the plots, Kd (dissociation constant) and Bmax are determined and employed as indicators of the affinity.
By using a determined amount of the solubilized fraction of rat cerebellum, Scatchard plot analysis with regard to the solubilized receptor protein of the present invention was performed by the conventional method. […]
The reaction mixture was cooled on ice for 10 minutes and then filtered through a glass filter. […] 2 ml of ethanol and 8 ml of creasol (Nacalai Tesque) were added to the filter and the radioactivity on the filter was measured in a liquid scintillation counter.
FIG. 4 is a graph showing the radioactivities which bound to the receptor when [6-^3 H]6R-BH4 was added at various concentrations to a determined amount of the solubilized receptor. […] Accordingly, the saturation of the specific binding can be calculated as the difference between the total and nonspecific bindings. […]

6R-BH4 receptor [5] = biological target: T1, 6R-BH4 receptor; experiment: Competitive binding test between various compounds and 13 nM [6-^3 H]6R-BH4, solubilized fraction of rat cerebellum; conditions: for affinity of the receptor to 6R-BH4 relative to its affinity to the compound (from IC50 data): 13 nM [6-^3 H]6R-BH4, solubilized fraction of rat cerebellum
Description: The specificity of the receptor of the present invention in binding to 6R-BH4 can be confirmed by a competitive binding test with the use of various compounds at varying concentrations.
In this method, the above-mentioned compounds at varying concentrations (for example, biopterin as will be described in Example 6 hereinafter) are added as a ligand simultaneously with [6-^3 H]6R-BH4 to the reaction mixture and the reaction is performed. The ability of the receptor of the present invention to bind to 6R-BH4 will not be inhibited to any substantial extent by these ligands.
By using the solubilized fraction of rat cerebellum, a competitive binding test between various compounds at varying concentrations and 13 nM of [6-^3 H]6R-BH4 was carried out.
About 0.3 mg (protein) of the solubilized fraction obtained in Example 3 was incubated together with 13 nM of [6-^3 H]6R-BH4 in a 200 μl solution of 50 mM Tris hydrochloride (pH 7.4), 100 mM NaCl, 10 mM MgCl2, 2 mM ascorbic acid and 6 mM cysteine at 37° C. for 10 minutes. Then 3 mg/ml (final concentration) of bovine γ-globulin and 15% (final concentration) of polyethylene glycol 6000 were added to cease the reaction.
Next, the reaction mixture was cooled on ice for 10 minutes and then passed through a glass filter. After being washed 4 times with 4 ml portions of 8% polyethylene glycol and 10 mM Tris hydrochloride (pH 7.4), the filter was taken off and placed in a vial. 2 ml of ethanol and 8 ml of creasol (Nacalai Tesque) were added to the filter and the radioactivity on the filter was measured in a liquid scintillation counter.
The results thus obtained were referred to as total binding. Then various compounds at varying concentrations were added as a ligand simultaneously with [6-^3 H]6R-BH4 in the above procedure, and the reaction was effected.

- Bmax (maximum binding constant) (6R-BH4 receptor [4]): 550 fmol/mg protein
- Kd (6R-BH4 receptor [4]; 37° C. for 10 minutes, read-out: Kd (dissociation constant)): 21 nM
Compound: C[C@H](O)[C@H](O)[C@H]1CNc2nc(N)[nH]c(=O)c2N1 [6R-BH4, 6(R)-L-erythro-5,6,7,8-tetrahydrobiopterin]
- treatment of malignant phenylketonuria, juvenile Parkinson's disease and infantile autism of the dysbolism type [1]: effective
- Kd for known enzymes [2]: several ten
- liberation of glutamic acid, aspartic acid or GABA via DA and release of acetylcholine via serotonin [3]: enhances
- release and liberation of neurotransmitter amines such as dopamine (DA), norepinephrine and serotonin [3]: enhances

- affinity of the receptor to 6R-BH4 relative to its affinity to the compound (from IC50 data) (6R-BH4 receptor [5]): > 1,000 times
Compound: C[C@H](O)[C@H](O)[C@@H]1CNc2nc(N)[nH]c(=O)c2N1 [6S-BH4]

- affinity of the receptor to 6R-BH4 relative to its affinity to the compound (from IC50 data) (6R-BH4 receptor [5]): more than 50 times
Compound: C[C@H](O)[C@H](O)C1=Nc2c(nc(N)[nH]c2=O)NC1 [BH2, 7,8-dihydrobiopterin]

Compound: Nc1nc2c(c(=O)[nH]1)NC(CNc1ccc(C(=O)N[C@@H](CCC(=O)O)C(=O)O)cc1)CN2 (stereo partly drawn) [FAH4, tetrahydrofolic acid]
- binding ability to the receptor (6R-BH4 receptor [5]; competitive binding, solubilized fraction of rat cerebellum): does not show any substantial binding ability
